Measured values from patent EP2070521A1, “Surface-modified nanoparticles” (Bayer Schering Pharma Aktiengesellschaft, priority 2007, dated 2009).

Assay: in vivo
Settings: male, NMRI nu/nu, mouse, iv, 8 mg/kg

`C=CC[C@H]1C(=O)C(C)(C)[C@@H](O)CC(=O)O[C@H](c2ccc3sc(C)nc3c2)C[C@@H]2O[C@]2(C)CCC[C@H](C)[C@@H]1O` [epothilone, (1S,3S,7S, 10R,11S,12S,16R)-7,11-dihydroxy-10-(prop-2-en-1-yl)-3-(2-methyl-benzothiazol-5-yl)-8,8,12,16-tetramethyl-4,17-dioxabicyclo[14.1.0]heptadecane-5,9-dione] showed a Kp at 1 h of 16.3, a Kp at 2 h of 29.1 and a Kp at 4 h of 27.7.
